Results reported in PubChem BioAssay AID2060626 (Molecular Pharmacology Branch, DTP, NCI, 2025).

System: 168753-222-R-J1-PDC complex spheroid viability
Assay: Anticancer human tumor 168753-222-R-J1-PDC patient-derived bladder carcinoma cell line growth inhibition [CLK]
Settings: second compound 0.0316 µM; first compound 3.16 µM; active compounds read low
Method in brief: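 Multi-cell-type spheroids combined patient-derived tumor cells with HUVEC endothelial cells and human mesenchymal stem cells. Paired agents were dosed in half-log steps down from about clinical Cmax, or from 10 microM where Cmax was unknown.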
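Note: luminescence signal used as surrogate for viable cell amount; viability measured after seven days of drug exposure; 100% = DMSO vehicle control wells.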

SMILES	viability, T/C
C=CC(=O)N1CCN(c2nc(=O)n(-c3c(C)ccnc3C(C)C)c3nc(-c4c(O)cccc4F)c(F)cc23)C(C)C1 (stereo unspecified) + CNC(=O)c1ccc(Nc2nc(OC3CCCC3)c3c(-c4ccc5nc(C)oc5c4)c[nH]c3n2)c(OC)c1	117%
CCCS(=O)(=O)Nc1ccc(F)c(C(=O)c2c[nH]c3ncc(-c4ccc(Cl)cc4)cc23)c1F + CNC(=O)c1ccc(Nc2nc(OC3CCCC3)c3c(-c4ccc5nc(C)oc5c4)c[nH]c3n2)c(OC)c1	105%
COC1C=CCC(C)C(C)S(=O)(=O)NC(=O)c2ccc3c(c2)N(CC2CCC21)CC1(CCCc2cc(Cl)ccc21)CO3 (stereo unspecified) + CNC(=O)c1ccc(Nc2nc(OC3CCCC3)c3c(-c4ccc5nc(C)oc5c4)c[nH]c3n2)c(OC)c1	34.6%

Same assay, conditions: second compound 0.0316 µM; first compound 10 µM; active compounds read low

SMILES	viability, T/C
COc1ccc([C@@H](O)c2cc(-c3ncnc4cc(N5CCOCC5)ccc34)c(F)cc2Cl)nn1 + CN1CCN(c2cc(C(=O)Nc3cc4cc(-c5cnn(C)c5)ccc4cn3)ccn2)CC1	7.52%
COc1cccc2c1C(=O)c1c(O)c3c(c(O)c1C2=O)CC(O)(C(=O)CO)CC3OC1CC(N)C(O)C(C)O1 (stereo unspecified) + CN1CCN(c2cc(C(=O)Nc3cc4cc(-c5cnn(C)c5)ccc4cn3)ccn2)CC1	0.18%
C=CC(=O)N1CCN(c2nc(=O)n(-c3c(C)ccnc3C(C)C)c3nc(-c4c(O)cccc4F)c(F)cc23)C(C)C1 (stereo unspecified) + CNC(=O)c1ccc(Nc2nc(OC3CCCC3)c3c(-c4ccc5nc(C)oc5c4)c[nH]c3n2)c(OC)c1	113%
CCCS(=O)(=O)Nc1ccc(F)c(C(=O)c2c[nH]c3ncc(-c4ccc(Cl)cc4)cc23)c1F + CNC(=O)c1ccc(Nc2nc(OC3CCCC3)c3c(-c4ccc5nc(C)oc5c4)c[nH]c3n2)c(OC)c1	68.1%
COC1C=CCC(C)C(C)S(=O)(=O)NC(=O)c2ccc3c(c2)N(CC2CCC21)CC1(CCCc2cc(Cl)ccc21)CO3 (stereo unspecified) + CNC(=O)c1ccc(Nc2nc(OC3CCCC3)c3c(-c4ccc5nc(C)oc5c4)c[nH]c3n2)c(OC)c1	13.6%

Same assay, conditions: second compound 0.1 µM; first compound 0.0316 µM; active compounds read low

SMILES	viability, T/C
COc1ccc([C@@H](O)c2cc(-c3ncnc4cc(N5CCOCC5)ccc34)c(F)cc2Cl)nn1 + CN1CCN(c2cc(C(=O)Nc3cc4cc(-c5cnn(C)c5)ccc4cn3)ccn2)CC1	63%
COc1cccc2c1C(=O)c1c(O)c3c(c(O)c1C2=O)CC(O)(C(=O)CO)CC3OC1CC(N)C(O)C(C)O1 (stereo unspecified) + CN1CCN(c2cc(C(=O)Nc3cc4cc(-c5cnn(C)c5)ccc4cn3)ccn2)CC1	38.4%
C=CC(=O)N1CCN(c2nc(=O)n(-c3c(C)ccnc3C(C)C)c3nc(-c4c(O)cccc4F)c(F)cc23)C(C)C1 (stereo unspecified) + CNC(=O)c1ccc(Nc2nc(OC3CCCC3)c3c(-c4ccc5nc(C)oc5c4)c[nH]c3n2)c(OC)c1	104%
CCCS(=O)(=O)Nc1ccc(F)c(C(=O)c2c[nH]c3ncc(-c4ccc(Cl)cc4)cc23)c1F + CNC(=O)c1ccc(Nc2nc(OC3CCCC3)c3c(-c4ccc5nc(C)oc5c4)c[nH]c3n2)c(OC)c1	91.6%
COC1C=CCC(C)C(C)S(=O)(=O)NC(=O)c2ccc3c(c2)N(CC2CCC21)CC1(CCCc2cc(Cl)ccc21)CO3 (stereo unspecified) + CNC(=O)c1ccc(Nc2nc(OC3CCCC3)c3c(-c4ccc5nc(C)oc5c4)c[nH]c3n2)c(OC)c1	102%

Same assay, conditions: second compound 0.1 µM; first compound 0.1 µM; active compounds read low

SMILES	viability, T/C
COc1ccc([C@@H](O)c2cc(-c3ncnc4cc(N5CCOCC5)ccc34)c(F)cc2Cl)nn1 + CN1CCN(c2cc(C(=O)Nc3cc4cc(-c5cnn(C)c5)ccc4cn3)ccn2)CC1	26.1%
COc1cccc2c1C(=O)c1c(O)c3c(c(O)c1C2=O)CC(O)(C(=O)CO)CC3OC1CC(N)C(O)C(C)O1 (stereo unspecified) + CN1CCN(c2cc(C(=O)Nc3cc4cc(-c5cnn(C)c5)ccc4cn3)ccn2)CC1	15.5%
C=CC(=O)N1CCN(c2nc(=O)n(-c3c(C)ccnc3C(C)C)c3nc(-c4c(O)cccc4F)c(F)cc23)C(C)C1 (stereo unspecified) + CNC(=O)c1ccc(Nc2nc(OC3CCCC3)c3c(-c4ccc5nc(C)oc5c4)c[nH]c3n2)c(OC)c1	98.5%
CCCS(=O)(=O)Nc1ccc(F)c(C(=O)c2c[nH]c3ncc(-c4ccc(Cl)cc4)cc23)c1F + CNC(=O)c1ccc(Nc2nc(OC3CCCC3)c3c(-c4ccc5nc(C)oc5c4)c[nH]c3n2)c(OC)c1	103%
COC1C=CCC(C)C(C)S(=O)(=O)NC(=O)c2ccc3c(c2)N(CC2CCC21)CC1(CCCc2cc(Cl)ccc21)CO3 (stereo unspecified) + CNC(=O)c1ccc(Nc2nc(OC3CCCC3)c3c(-c4ccc5nc(C)oc5c4)c[nH]c3n2)c(OC)c1	106%

Same assay, conditions: second compound 0.1 µM; first compound 0.316 µM; active compounds read low

SMILES	viability, T/C
COc1ccc([C@@H](O)c2cc(-c3ncnc4cc(N5CCOCC5)ccc34)c(F)cc2Cl)nn1 + CN1CCN(c2cc(C(=O)Nc3cc4cc(-c5cnn(C)c5)ccc4cn3)ccn2)CC1	13.6%
COc1cccc2c1C(=O)c1c(O)c3c(c(O)c1C2=O)CC(O)(C(=O)CO)CC3OC1CC(N)C(O)C(C)O1 (stereo unspecified) + CN1CCN(c2cc(C(=O)Nc3cc4cc(-c5cnn(C)c5)ccc4cn3)ccn2)CC1	10.5%
C=CC(=O)N1CCN(c2nc(=O)n(-c3c(C)ccnc3C(C)C)c3nc(-c4c(O)cccc4F)c(F)cc23)C(C)C1 (stereo unspecified) + CNC(=O)c1ccc(Nc2nc(OC3CCCC3)c3c(-c4ccc5nc(C)oc5c4)c[nH]c3n2)c(OC)c1	97.5%
CCCS(=O)(=O)Nc1ccc(F)c(C(=O)c2c[nH]c3ncc(-c4ccc(Cl)cc4)cc23)c1F + CNC(=O)c1ccc(Nc2nc(OC3CCCC3)c3c(-c4ccc5nc(C)oc5c4)c[nH]c3n2)c(OC)c1	105%
COC1C=CCC(C)C(C)S(=O)(=O)NC(=O)c2ccc3c(c2)N(CC2CCC21)CC1(CCCc2cc(Cl)ccc21)CO3 (stereo unspecified) + CNC(=O)c1ccc(Nc2nc(OC3CCCC3)c3c(-c4ccc5nc(C)oc5c4)c[nH]c3n2)c(OC)c1	101%

Same assay, conditions: second compound 0.1 µM; first compound 1 µM; active compounds read low

SMILES	viability, T/C
COc1ccc([C@@H](O)c2cc(-c3ncnc4cc(N5CCOCC5)ccc34)c(F)cc2Cl)nn1 + CN1CCN(c2cc(C(=O)Nc3cc4cc(-c5cnn(C)c5)ccc4cn3)ccn2)CC1	13.1%
COc1cccc2c1C(=O)c1c(O)c3c(c(O)c1C2=O)CC(O)(C(=O)CO)CC3OC1CC(N)C(O)C(C)O1 (stereo unspecified) + CN1CCN(c2cc(C(=O)Nc3cc4cc(-c5cnn(C)c5)ccc4cn3)ccn2)CC1	7.96%
C=CC(=O)N1CCN(c2nc(=O)n(-c3c(C)ccnc3C(C)C)c3nc(-c4c(O)cccc4F)c(F)cc23)C(C)C1 (stereo unspecified) + CNC(=O)c1ccc(Nc2nc(OC3CCCC3)c3c(-c4ccc5nc(C)oc5c4)c[nH]c3n2)c(OC)c1	107%
